{"source": "patent US5332734A", "about": "“Oxazinone derivative” (Japan Tobacco, Incorporated, priority 1991, dated 1994)", "key": {"[1]": {"molecular_target": "T1, human leukocyte elastase (HLE) (Homo sapiens, UniProt P08246)", "T1 construct": "applying a density gradient centrifugal operation so as to obtain neutrophils; from tissue; host or cells: neutrophils from human venous blood", "T1 sequence (P08246 30-267)": "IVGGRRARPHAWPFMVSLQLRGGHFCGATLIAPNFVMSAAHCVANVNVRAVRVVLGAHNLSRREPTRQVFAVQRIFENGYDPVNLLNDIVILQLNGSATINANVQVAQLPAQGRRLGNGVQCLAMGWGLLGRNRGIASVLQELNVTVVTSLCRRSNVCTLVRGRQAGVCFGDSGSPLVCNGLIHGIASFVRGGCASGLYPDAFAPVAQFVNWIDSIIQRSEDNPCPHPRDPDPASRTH", "assay": "HLE inhibitory activity", "format": "biochemical", "details": "HLE 5.63 nM, substrate 0.2625 mM, pH 8.6, 37° C.", "experimental": "(§1) Inhibotory activities of the oxadinone derivative of the present invention against human leukocyte elastase (HLE), human sputum elastase (HSE), human cathepsin G (HCG), bovine pancreatic α-chymotrypsin (CYT) and bovine pancreatic trypsin (TRY) were measured as follows:\n(1) Measurement of HLE Inhibitory Activity\nA buffy coat was obtained by subjecting human vein blood to centrifugal separation, followed by adding distilled water to the buffy coat thus obtained for performing a low tension treatment so as to collapse erythrocytes. A mixture consisting of 10 parts of a 33.4% Conrey 400 solution and 24 parts of 9% of Ficoll solution was added to the residual blood cell component, followed by applying a density gradient centrifugal operation so as to obtain neutrophils. The neutrophil fraction was washed three times with Hanks' buffer so as to recover cells, which were frozen at -80° C. for preservation until the cells were used. The cells preserved under a frozen state were thawed with warm water of 37° C. and suspended in the lysis buffer (0.1M Tris-HCl pH 7.5, 1M MgCl2, 0.1% Brij 35), the amount of the buffer being 9 times as much as that of the cells. Then, the suspended cells were collapsed with polotron while cooling the suspension with ice. Then, the suspension was subjected to a centrifugal separation at 100,000×g for one hour so as to remove the precipitate. Also, a buffer (5 mM Tris-HCl pH 7.5, 1M NaCl, 1.1% Brij 35) was added to the supernatant in an amount twice as much as the supernatant so as to prepare a crude solution of an enzyme extract. The crude solution of an enzyme extract was adsorbed on an aprotinin affinity column. Further, the active fraction eluted with a 50 ml glycine-HCl solution (pH 3.3, 1M NaCl, 0.1% Brij 35) was passed through a MONO S ion-exchange chromatography. The active fraction eluted with a 2M NaCl linear gradient was dialyzed and, then, subjected to a freeze-drying so as to prepare an enzyme sample.\nA test compound to be detected was dissolved in DMSO (for fluorometry) so as to prepare solutions of various concentrations. Then, the solution of 0.2M Tris-HCl (pH 9.6) was added to each of the solutions in an amount twice as much as the solution so as to prepare a test solution. On the other hand, a synthetic substrate (MeOSuc-Ala-Pro-Val-pNA; FUNAKOSHI) was dissolved in DMSO, followed by adding 0.2M tris-HCl solution (pH 8.6) to the solution in an amount twice as much as the solution so as to prepare a substrate solution.\nA microplate (NUNK) provided with 96 wells was used for the reaction. The reaction was repeatedly carried out 6 times for each concentration of the test compound. Each of 140 μl of the enzyme solution (0.2M Tris-HCl, pH 8.6), 30 μl of the test material solution and 30 μl of the substrate solution was pre-incubated for 10 minutes at 37° C. for each well of the microplate. After incubation of a mixture of the enzyme solution and the test material solution for 10 minutes, the substrate solution was added so as to carry out the enzyme reaction. For determining the substrate decomposition, the absorbance (405 run) of the released pNA was measured by a microplate reader (MTP-100; CORONA), and the substrate decomposition was calculated on the basis of the average value of the absorbances repeatedly measured 6 times. The inhibitory concentration of the test compound relative to the decomposition amount of the substrate in the case where the test compound was not added was obtained as IC50 value."}, "human cathepsin G (HCG)": {"molecular_target": "T2, human cathepsin G (HCG) (Homo sapiens, UniProt P08311)", "T2 construct": "purchased Cosmo Bio Inc", "T2 sequence (P08311 21-255)": "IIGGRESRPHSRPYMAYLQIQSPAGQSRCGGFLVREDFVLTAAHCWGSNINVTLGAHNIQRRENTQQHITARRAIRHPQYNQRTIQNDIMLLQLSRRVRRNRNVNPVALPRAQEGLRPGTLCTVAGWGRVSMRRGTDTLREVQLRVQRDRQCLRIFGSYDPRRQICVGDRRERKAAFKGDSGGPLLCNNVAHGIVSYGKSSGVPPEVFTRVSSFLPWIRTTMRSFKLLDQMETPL", "assay": "HCG inhibitory activity", "format": "biochemical", "details": "HCG 50 nM, substrate 0.5 mM, pH 7.5", "experimental": "as §1\n(3) Measurement of HCG Inhibitory Activity\na) Enzyme Preparing Method Bought from Cosmo Bio Inc.\nEmployed was a measuring method similar to that described previously in conjunction with the measurement of the HLE inhibiting activity, except that used was a buffer solution of pH 7.5. The final concentrations of HCG and the synthetic substrate (Ac-Ala-Ala-Pro-Phe-pNA; FUNAKOSHI) in the solution of the enzyme reaction were 50 nM and 0.5 mM, respectively."}, "[2]": {"system": "neutrophil infiltration into carrageenin-induced air pouch inflammation", "assay": "Suppressing neutrophil infiltration into carrageenin-induced air pouch inflammation", "format": "in vivo, SD series male rats", "details": "17 μmol into air pouch, 5 hours; for Cell Infiltration Capability: control = 100", "experimental": "Test: 3 Effect of the Invented Compound for Suppressing Neutrophil Infiltration into carrageenin-induced Air Pouch Inflammation\nGroups of SD series male rats (5 five weeks old and each weighing 110 to 130 g) were used in this experiment, each group consisting of five rats. In the first step, an air bladder was formed on the back of the rat by hypodermic injection of 8 ml of air while anesthetizing the rat with either. Twenty-four hours later, 5 ml of a physiological saline containing 1% of carrageenin manufactured by Wako K.K. was injected into the air pouch. Promptly after the carrageenin injection, a solution prepared by dissolving the test material (compound of the present invention) in 200 μl of DMSO (dimethylsulfoxide) was administered to the air pouch on the back of the rat.\nFive hours later, the rat was killed and the blood was released therefrom. Then, 5 ml of PBS containing 10 mM of EDTA (ethylenediamine tetraacetate) was injected into the air pouch. The exudate within the air bladder was washed and, then, recovered. A predetermined amount of the recovered exudate was measured by a colter counter so as to count the number of infiltrated cells.\nThe effect of the test material for suppressing the cell infiltration into the carrageenin induced inflammation was determined by the formula given below, in which the value obtained by subtracting the number of infiltrated cells in the experiment in which carrageenin was not administered from the number of infiltrated cells in the reference group in which a medicine was not administered was set at 100:\n= 100 - (U - V)/(W - V) × 100\nS: Cell infiltration capability in the case of containing the compound of the present invention;\nT: Cell infiltration capability in the case of not containing the compound of the present invention;\nU: The number of infiltrated cells in the case of administering the compound of the present invention and carrageenin;\nV: The number of infiltrated cells in the case of not adding carrageenin; and\nW: The number of infiltrated cells in the case of administering carrageenin only."}}}
{"smiles": "Cc1cccc2nc([C@@H](NC(=O)OCC3c4ccccc4-c4ccccc43)C(C)C)oc(=O)c12", "note": "[Compound 1, 2-{1(S)-[(9-fluorenylmethoxycarbonyl)amino]-2-methylpropyl}-5-methyl-4H-3,1-benzoxazin-4-one]", "values": [{"measurement": "IC50", "setting": "[1]", "value": 240, "unit": "nM"}, {"measurement": "IC50", "setting": "human cathepsin G (HCG)", "value": "> 5500", "unit": "nM"}, {"measurement": "Rate (%) of Suppressing Cell Infiltration", "setting": "[2]", "value": 38, "unit": "%"}, {"measurement": "Cell Infiltration Capability", "setting": "[2]", "value": 62}]}
{"smiles": "Cc1cccc2nc([C@H](CC(C)C)NC(=O)OCC3c4ccccc4-c4ccccc43)oc(=O)c12", "note": "[Compound 2, 2-{1(S)-[(9-fluorenylmethoxycarbonyl)amino]-3-methylbutyl}-5-methyl-4H-3,1-benzoxazin-4-one]", "values": [{"measurement": "IC50", "setting": "[1]", "value": 730, "unit": "nM"}, {"measurement": "IC50", "setting": "human cathepsin G (HCG)", "value": "> 5340", "unit": "nM"}, {"measurement": "Rate (%) of Suppressing Cell Infiltration", "setting": "[2]", "value": 24, "unit": "%"}, {"measurement": "Cell Infiltration Capability", "setting": "[2]", "value": 76}]}
